Drawing on patent US9169259B2, “Imidazopyridazine compounds” (Hoffmann-La Roche Inc., priority 2011, dated 2015), this text covers IC50 for 29 molecules.

This test addresses recombinant human SYK360-635 (Homo sapiens (Human), UniProt P43405). The experiment in a line: SYK kinase assay (33P ATP filtration, IC50 of SYK inhibition). The settings on record: truncated SYK aa 360-635 0.5 nM, ATP 20 μM, peptide 5 μM, 30° C. 15 min; read-out: ENZYME_FILTRATION_IC50. In kind it is biochemical. Here is the method:
Determination of IC50 of Spleen Tyrosine Kinase (SYK) Inhibition:
SYK kinase assay is a standard kinase assay adapted to a 96 well plate format. This assay is performed in 96-well format for IC50 determination with […] which represented 10 half log dilutions and a 40 μL reaction volume. The assay measures the incorporation of radiolabeled ^33P γATP into an N-terminally biotinylated peptide substrate, derived from naturally occurring phosphoacceptor consensus sequence (Biotin-11aa DY*E). Phosphorylated products were detected upon termination of reactions with EDTA and the addition of Streptavidin coated beads.
Assay plates: 96-well MultiScreen 0.65 um filter plates (Millipore Cat. No.: MADVNOB10)
final concentration: 50 mM HEPES pH7.5
BSA: Bovine Serum Albumin Fraction V, fatty acid free (Roche Diagnostics GmbH, Cat. No. 9100221) diluted to a final concentration of 0.1%
Assay Dilution Buffer (ADB): 50 mM HEPES, 0.1 mM EGTA, 0.1 mM Na Vanadate, 0.1 mM β-glycerophosphate, 10 mM MgCl2, 1 mM DTT, 0.1% BSA, pH 7.5
Bead wash buffer: 10 g/L PBS (Phosphate buffered saline) with 2M NaCl+1% phosphoric acid.
DMSO and the mixture was incubated for 10 min at RT.
The kinase reaction was initiated by the addition of 10 μL 4× substrate cocktail containing the DYE peptide substrate [0 or 5 μM], ATP [20 μM] and ^33PγATP [2 μCi/r×n]. After incubation at 30° C. for 15 min, the reaction was terminated by the transfer of 25 μL of the reaction sample to a 96 well 0.65 μm Millipore MADVNOB membrane/plate containing 200 μL 5 mM EDTA and 20% Streptavidine coated beads in PBS.
After the last wash membrane/plates were transferred to an adaptor plate, heat dried for 15 min at 60° C., and 50 μL scintillation cocktail was added to each well and 4 h later the amount of radioactivity was counted in a top counter.

Where a name gives a salt, the structure may show the parent alone.

On to `CC1CCCN1c1cccc(Nc2cc(-c3cccc(C(=O)NCCN(C)C)c3)nn3ccnc23)n1` (centres unmarked) [Example I-46, N-(2-Dimethylamino-ethyl)-3-{8-[6-(2-methyl-pyrrolidin-1-yl)-pyridin-2-ylamino]-imidazo[1,2-b]pyridazin-6-yl}-benzamide], for which the IC50 was found to be 0.141 µM.

As to `Cc1ccccc1-c1cc(Nc2cccc(N3CCCC3C)n2)c2nccn2n1` (centres unmarked) [Example I-47, [6-(2-Methyl-pyrrolidin-1-yl)-pyridin-2-yl]-(6-o-tolyl-imidazo[1,2-b]pyridazin-8-yl)-amine], the IC50 was found to be 0.159 µM.

`CC1CCCN1c1cccc(Nc2cc(-c3ccccc3C(F)(F)F)nn3ccnc23)n1` (centres unmarked) [Example I-48, [6-(2-Methyl-pyrrolidin-1-yl)-pyridin-2-yl]-[6-(2-trifluoromethyl-phenyl)-imidazo[1,2-b]pyridazin-8-yl]-amine hydrochloride]: the IC50 was determined as 0.41 µM.

As to `C[C@H]1CCCN1c1cccc(Nc2cc(-c3ccc4ncsc4c3)nn3ccnc23)n1` [Example I-52, (6-Benzothiazol-6-yl-imidazo[1,2-b]pyridazin-8-yl)-[6-((S)-2-methyl-pyrrolidin-1-yl)-pyridin-2-yl]-amine], the IC50 is 0.0362 µM.

As to `COc1ccc(Nc2cc(-c3cccc(C(=O)Nc4ccc5c(c4)CNC5=O)c3)nn3ccnc23)nc1OC` [Example I-56, 3-[8-(5,6-Dimethoxy-pyridin-2-ylamino)-imidazo[1,2-b]pyridazin-6-yl]-N-(1-oxo-2,3-dihydro-1H-isoindol-5-yl)-benzamide], the IC50 is 0.593 µM.

Regarding `COc1cc(NC(=O)c2cccc(-c3cc(Nc4ccc(OC)c(OC)n4)c4nccn4n3)c2)ccc1C(=O)O` [Example I-57, 4-{3-[8-(5,6-Dimethoxy-pyridin-2-ylamino)-imidazo[1,2-b]pyridazin-6-yl]-benzoylamino}-2-methoxy-benzoic acid], the IC50 came out at 0.00155 µM.

As to `CC1(C)CCN(c2cccc(Nc3cc(-c4cccc(C(=O)O)c4)nn4ccnc34)n2)C1` [Example I-59, 3-{8-[6-(3,3-Dimethyl-pyrrolidin-1-yl)-pyridin-2-ylamino]-imidazo[1,2-b]pyridazin-6-yl}-benzoic acid], the IC50 is 0.599 µM.

With `CC1CCC(C)N1c1cccc(Nc2cc(-c3cccc(C(=O)O)c3)nn3ccnc23)n1` (centres unmarked) [Example I-60, 3-{8-[6-(2,5-Dimethyl-pyrrolidin-1-yl)-pyridin-2-ylamino]-imidazo[1,2-b]pyridazin-6-yl}-benzoic acid], the IC50 was 0.231 µM.

Consider `CC1(C)CCN(c2cccc(Nc3cc(-c4cccc(C(=O)O)c4)nn4ccnc34)n2)CC1` [Example I-61, 3-[8-(4,4-Dimethyl-3,4,5,6-tetrahydro-2H-[1,2′]bipyridinyl-6′-ylamino)-imidazo[1,2-b]pyridazin-6-yl]-benzoic acid], for which the IC50 was 1.38 µM.

For `COc1ccc(-c2cc(Nc3cccc(N4CCCC4C)n3)c3nccn3n2)cc1OC` (centres unmarked) [Example I-62, [6-(3,4-Dimethoxy-phenyl)-imidazo[1,2-b]pyridazin-8-yl]-[6-(2-methyl-pyrrolidin-1-yl)-pyridin-2-yl]-amine], the IC50 is 0.306 µM.

`CC(=O)N1CCc2ccc(-c3cc(Nc4cccc(N5CCCC5C)n4)c4nccn4n3)cc2C1` (centres unmarked) [Example I-64, 1-(7-{8-[6-(2-Methyl-pyrrolidin-1-yl)-pyridin-2-ylamino]-imidazo[1,2-b]pyridazin-6-yl}-3,4-dihydro-1H-isoquinolin-2-yl)-ethanone]: the IC50 stood at 0.0566 µM.

As to `COC(=O)c1cccc(-c2cc(Nc3cccc(N4CCC(C(C)(C)C)C4)n3)c3nccn3n2)c1` (centres unmarked) [Example I-65, 3-{8-[6-(3-tert-Butyl-pyrrolidin-1-yl)-pyridin-2-ylamino]-imidazo[1,2-b]pyridazin-6-yl}-benzoic acid methyl ester], the IC50 is 1.26 µM.

Turning to `CC(C)(C)C1CCN(c2cccc(Nc3cc(-c4cccc(C(=O)O)c4)nn4ccnc34)n2)C1` (centres unmarked) [Example I-66, 3-{8-[6-(3-tert-Butyl-pyrrolidin-1-yl)-pyridin-2-ylamino]-imidazo[1,2-b]pyridazin-6-yl}-benzoic acid], the IC50 came to 0.696 µM.

As to `CC(C)(C)C1CCN(c2cccc(Nc3cc(-c4cccc(C(N)=O)c4)nn4ccnc34)n2)C1` (centres unmarked) [Example I-67, 3-{8-[6-(3-tert-Butyl-pyrrolidin-1-yl)-pyridin-2-ylamino]-imidazo[1,2-b]pyridazin-6-yl}-benzamide], the IC50 is 0.28 µM.

With `CC1CCCN1c1cccc(Nc2cc(-c3cccc(CN4CCCC4)c3)nn3ccnc23)n1` (centres unmarked) [Example I-70, [6-(2-Methyl-pyrrolidin-1-yl)-pyridin-2-yl]-[6-(3-pyrrolidin-1-ylmethyl-phenyl)-imidazo[1,2-b]pyridazin-8-yl]-amine], the IC50 came to 0.0608 µM.

As to `C[C@H]1CCCN1c1cccc(Nc2cc(-c3cccc(Cl)c3)nn3ccnc23)n1` [Example I-71, [6-(3-Chloro-phenyl)-imidazo[1,2-b]pyridazin-8-yl]-[6-((S)-2-methyl-pyrrolidin-1-yl)-pyridin-2-yl]-amine hydrochloride], the IC50 turned out to be 0.246 µM.

On to `COc1ccc(Nc2cc(N3CCCC(NC(=O)c4ccc(C(=O)O)cc4)C3)nn3ccnc23)nc1OC` (centres unmarked) [Example I-72, N-{1-[8-(5,6-Dimethoxy-pyridin-2-ylamino)-imidazo[1,2-b]pyridazin-6-yl]-piperidin-3-yl}-terephthalamic acid], for which the IC50 amounted to 0.0022 µM.

On to `COc1ccc(Nc2cc(N3CCCC(C(=O)Nc4ccc(C(=O)O)cc4)C3)nn3ccnc23)nc1OC` (centres unmarked) [Example I-74, 4-({1-[8-(5,6-Dimethoxy-pyridin-2-ylamino)-imidazo[1,2-b]pyridazin-6-yl]-piperidine-3-carbonyl}-amino)-benzoic acid], for which the IC50 was 0.0149 µM.

`COc1ccc(Nc2cc(N3CCC(C(=O)Nc4ccc(C(=O)O)cc4)C3)nn3ccnc23)nc1OC` (centres unmarked) [Example I-75, 4-({1-[8-(5,6-Dimethoxy-pyridin-2-ylamino)-imidazo[1,2-b]pyridazin-6-yl]-pyrrolidine-3-carbonyl}-amino)-benzoic acid]: the IC50 amounted to 0.461 µM.

As for `COc1ccc(Nc2cc(N3CCC(NC(=O)c4ccc(C(=O)O)cc4)C3)nn3ccnc23)nc1OC` (centres unmarked) [Example I-76, N-{1-[8-(5,6-Dimethoxy-pyridin-2-ylamino)-imidazo[1,2-b]pyridazin-6-yl]-pyrrolidin-3-yl}-terephthalamic acid], the IC50 came to 0.0421 µM.

For `CC1CCCN1c1cccc(Nc2cc(-c3ccc(O)cc3)nn3ccnc23)n1` (centres unmarked) [Example I-77, 4-{8-[6-(2-Methyl-pyrrolidin-1-yl)-pyridin-2-ylamino]-imidazo[1,2-b]pyridazin-6-yl}-phenol], the IC50 was determined as 0.0639 µM.

Regarding `CC1CCCN1c1cccc(Nc2cc(-c3cccnc3)nn3ccnc23)n1` (centres unmarked) [Example I-78, [6-(2-Methyl-pyrrolidin-1-yl)-pyridin-2-yl]-(6-pyridin-3-yl-imidazo[1,2-b]pyridazin-8-yl)-amine], the IC50 was determined as 0.0652 µM.

Consider `CC1CCCN1c1cccc(Nc2cc(-c3ccc(F)cc3)nn3ccnc23)n1` (centres unmarked) [Example I-79, [6-(4-Fluoro-phenyl)-imidazo[1,2-b]pyridazin-8-yl]-[6-(2-methyl-pyrrolidin-1-yl)-pyridin-2-yl]-amine], for which the IC50 worked out at 0.488 µM.

On to `CC1CCCN1c1cccc(Nc2cc(-c3cccc(C#N)c3)nn3ccnc23)n1` (centres unmarked) [Example I-80, 3-{8-[6-(2-Methyl-pyrrolidin-1-yl)-pyridin-2-ylamino]-imidazo[1,2-b]pyridazin-6-yl}-benzonitrile], for which the IC50 is 0.614 µM.

As for `CC1CCCN1c1cccc(Nc2cc(-c3ccncc3)nn3ccnc23)n1` (centres unmarked) [Example I-81, [6-(2-Methyl-pyrrolidin-1-yl)-pyridin-2-yl]-(6-pyridin-4-yl-imidazo[1,2-b]pyridazin-8-yl)-amine], the IC50 worked out at 0.189 µM.

For the molecule `COc1cncc(-c2cc(Nc3cccc(N4CCCC4C)n3)c3nccn3n2)c1` (centres unmarked) [Example I-82, [6-(5-Methoxy-pyridin-3-yl)-imidazo[1,2-b]pyridazin-8-yl]-[6-(2-methyl-pyrrolidin-1-yl)-pyridin-2-yl]-amine], the IC50 was found to be 0.0599 µM.

On to `CC1CCCN1c1cccc(Nc2cc(-c3ccc(C(C)(C)C)cc3)nn3ccnc23)n1` (centres unmarked) [Example I-85, [6-(4-tert-Butyl-phenyl)-imidazo[1,2-b]pyridazin-8-yl]-[6-(2-methyl-pyrrolidin-1-yl)-pyridin-2-yl]-amine], for which the IC50 was 0.61 µM.

As to `CC1CCCN1c1cccc(Nc2cc(-c3cccc(O)c3)nn3ccnc23)n1` (centres unmarked) [Example I-86, 3-{8-[6-(2-Methyl-pyrrolidin-1-yl)-pyridin-2-ylamino]-imidazo[1,2-b]pyridazin-6-yl}-phenol], the IC50 amounted to 0.102 µM.

Consider `CC1CCCN1c1cccc(Nc2cc(-c3cccc(OCCN4CCCCC4)c3)nn3ccnc23)n1` (centres unmarked) [Example I-87, [6-(2-Methyl-pyrrolidin-1-yl)-pyridin-2-yl]-{6-[3-(2-piperidin-1-yl-ethoxy)-phenyl]-imidazo[1,2-b]pyridazin-8-yl}-amine], for which the IC50 turned out to be 0.21 µM.
